Tested on: ERK1/2
Test: Western blot of proximal ascending aorta: ERK1/2 activation (Examples 6-8)
Assay type: in vivo, mice
Conditions: Fbn1^C1039G/+ mice, compared with placebo-treated littermates, FIG. 16B
Excerpt: All mice were cared for under strict compliance with the Animal Care and Use Committee of the Johns Hopkins University School of Medicine. The Smad4 haploinsufficient mice were a generous gift from Dr. Chuxia Deng (NIH/NIDDK, Bethesda). The Fbn1^C1039G/+ line was maintained on a C57BL/6 background, allowing for valid comparisons. In order to further accommodate the potential for temporal- or background-specific variation in genetic or pharmacological manipulation experiments, all comparisons were made between contemporary littermates. Mice were checked daily for death and all mice found dead were immediately necropsied to assess for evidence of aortic dissection. Mice were killed with an inhalation overdose of halothane (Sigma-Aldrich, St. Louis). Mice underwent immediate laparotomy, descending abdominal aortic transection, and PBS (pH 7.4) infusion through the left ventricle to flush out the blood. For Western blot analysis, the proximal ascending aorta (root to right brachiocephalic trunk) was removed, flash frozen in liquid nitrogen and stored at −80° C. Following PBS infusion, mice analyzed for aortic histology had latex injected under low pressure into the left ventricular apex until it was visible in the descending abdominal aorta. The mice were then fixed for 24 hours in 10% buffered formalin, after which the heart and aorta were removed and stored in 70% ethanol.
Mouse monoclonal TGFβNAb (1d11; R&D Systems, Minneapolis) was reconstituted in PBS and administered via intraperitoneal injection 3 times a week at a dose of 5 mg/kg. Treatment was initiated at 1 month of age and continued for 2 months. IgG (Zymed Laboratories Inc, San Francisco) was reconstituted in PBS, and administered at a dose of 10 mg/kg as a control. […]
Protein was extracted using the reagents and protocol from a Total Protein Extraction Kit, in conjunction with a Protein Phosphatase Inhibitor Cocktail (Millipore, MA). […] Equal protein loading of samples was determined by a protein assay (BioRad, CA) and confirmed by probing with antibodies against β-Actin or GAPDH (Sigma, Mo.). […]

## CCCCc1nc(Cl)c(CO)n1Cc1ccc(-c2ccccc2-c2nn[nH]n2)cc1 [losartan]
  ERK1/2 activation: significant reduction in ERK1/2 activation

Source: patent US20140148498A1, “METHODS AND COMPOSITIONS FOR THE TREATMENT OF MARFAN SYNDROME AND ASSOCIATED DISORDERS” (THE JOHNS HOPKINS UNIVERSITY, priority 2011, published 2014)
